Measured values: BindingDB's records for doi:10.1016/S0960-894X(00)80170-5 (1992)

What was measured:
[1] = target: T1, 5-hydroxytryptamine receptor 3A/3B (Mus musculus, UniProt P23979+Q9JHJ5); experiment: Compound was evaluated for binding to Serotonin 5-hydroxytryptamine 3 receptor in N1E cells using [3H]- -Tropisetron as radioligand
T1 sequence (P23979 whole entry): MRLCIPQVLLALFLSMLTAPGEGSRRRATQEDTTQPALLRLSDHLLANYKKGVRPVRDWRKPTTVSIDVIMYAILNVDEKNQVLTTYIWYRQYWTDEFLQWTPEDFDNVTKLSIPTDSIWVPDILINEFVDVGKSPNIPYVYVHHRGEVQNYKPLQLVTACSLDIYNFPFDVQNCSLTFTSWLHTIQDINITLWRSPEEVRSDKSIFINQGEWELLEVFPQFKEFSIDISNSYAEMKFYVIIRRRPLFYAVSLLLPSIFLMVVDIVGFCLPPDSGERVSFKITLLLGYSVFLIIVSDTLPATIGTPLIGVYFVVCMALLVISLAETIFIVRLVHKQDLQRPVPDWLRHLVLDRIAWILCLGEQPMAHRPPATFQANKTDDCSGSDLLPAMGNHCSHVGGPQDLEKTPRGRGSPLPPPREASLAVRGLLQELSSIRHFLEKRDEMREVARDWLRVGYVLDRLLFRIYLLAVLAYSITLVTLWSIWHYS
T1 sequence (Q9JHJ5 whole entry): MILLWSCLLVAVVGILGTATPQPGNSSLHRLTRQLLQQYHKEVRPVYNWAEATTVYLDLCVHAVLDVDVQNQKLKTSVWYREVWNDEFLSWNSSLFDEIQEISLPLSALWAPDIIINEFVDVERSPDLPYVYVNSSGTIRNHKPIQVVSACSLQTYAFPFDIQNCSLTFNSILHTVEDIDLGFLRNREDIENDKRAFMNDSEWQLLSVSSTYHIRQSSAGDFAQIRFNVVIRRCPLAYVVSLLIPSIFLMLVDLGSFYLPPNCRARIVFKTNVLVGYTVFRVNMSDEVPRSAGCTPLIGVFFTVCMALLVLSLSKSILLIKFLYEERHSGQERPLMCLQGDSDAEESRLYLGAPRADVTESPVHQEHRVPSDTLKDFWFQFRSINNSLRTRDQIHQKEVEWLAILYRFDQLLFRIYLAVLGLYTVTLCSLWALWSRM

[2] = target: T1, 5-hydroxytryptamine receptor 3A/3B; experiment: Compound was evaluated for binding to 5-hydroxytryptamine 3 receptor in N1E cells using [3H]- -Tropisetron as radioligand

Row | Kd [2] [nM] | SMILES | Kd [1] [nM]
1 |  | CN1C2CC(OC(=O)c3c[nH]c4ccccc34)CC1C1OC12 (stereo not drawn) | 0.631
2 |  | CN1[C@@H]2CC[C@H]1C[C@@H](OC(=O)c1c[nH]c3ccccc13)C2 [(3-ENDO)-8-METHYL-8-AZABICYCLO[3.2.1]OCT-3-YL 1H-INDOLE-3-CARBOXYLATE] | 0.794
3 | 20 | Cc1nccn1CC1CCc2c(c3ccccc3n2C)C1=O (stereo not drawn) [NSC_68647] | 
